Experimental data taken from patent US10793566B2, “Bruton's tyrosine kinase inhibitors” (Zibo Biopolar Changsheng Pharmaceutical Co. Ltd., priority 2016, dated 2020).
pIC50: −log10 of the molar value. Values belong to the compound of their own block, whether it stands above or below them.

Tests used:
BTK [1] = molecular target: T1, BTK (Homo sapiens (Human), UniProt Q06187); assay: Btk occupancy in cellular assays (PCI-33380 labeling); type: cell-based; conditions: Jeko-1 cells, 1.5 h pre-incubation, PCI-33380 probe
Protocol: Btk Occupancy in Cellular Assays
For PCI-33380 labeling of human B cells, 10^6 Jeko-1 cells were pre-incubated with compound for 1.5 h before labeling. Then cells were treated with PCI-33380 at 5 μM for 1 h. Washed, lysed in Ripa buffer containing sample reducing agent, and analyzed by SDS/PAGE and fluorescent gel scanning using a Typhoon scanner 9500 (GE Healthcare) (Ex, 532 nm; Em, 555 nm). The gel was then blotted and total Btk levels detected by standard Western blot with Btk antibody (CST).
Target sequence in this assay (Q06187 whole entry): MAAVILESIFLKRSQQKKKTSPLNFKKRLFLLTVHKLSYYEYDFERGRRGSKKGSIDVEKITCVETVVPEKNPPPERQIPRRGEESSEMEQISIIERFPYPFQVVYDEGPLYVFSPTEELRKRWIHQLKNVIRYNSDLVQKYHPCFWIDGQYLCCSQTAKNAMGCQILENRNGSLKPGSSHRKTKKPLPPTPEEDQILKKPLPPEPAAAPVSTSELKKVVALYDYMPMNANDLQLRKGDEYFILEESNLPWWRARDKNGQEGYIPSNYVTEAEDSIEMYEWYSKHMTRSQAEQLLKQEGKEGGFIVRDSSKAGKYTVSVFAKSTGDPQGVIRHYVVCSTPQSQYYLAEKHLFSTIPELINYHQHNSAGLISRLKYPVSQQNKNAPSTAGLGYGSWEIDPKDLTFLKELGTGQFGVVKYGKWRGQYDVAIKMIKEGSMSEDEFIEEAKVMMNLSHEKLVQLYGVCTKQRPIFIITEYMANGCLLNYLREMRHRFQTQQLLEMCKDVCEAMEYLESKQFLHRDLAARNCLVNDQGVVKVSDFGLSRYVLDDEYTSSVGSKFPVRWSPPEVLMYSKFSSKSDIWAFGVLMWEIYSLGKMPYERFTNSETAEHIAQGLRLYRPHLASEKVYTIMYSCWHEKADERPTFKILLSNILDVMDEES

Btk [2] = molecular target: Btk (Mus musculus (Mouse), UniProt P35991); assay: Btk occupancy in vivo (PBMCs/splenocytes, PCI-33380 labeling); conditions: Babc/L mice, after 4 hours
Sequence of Btk (P35991 whole entry): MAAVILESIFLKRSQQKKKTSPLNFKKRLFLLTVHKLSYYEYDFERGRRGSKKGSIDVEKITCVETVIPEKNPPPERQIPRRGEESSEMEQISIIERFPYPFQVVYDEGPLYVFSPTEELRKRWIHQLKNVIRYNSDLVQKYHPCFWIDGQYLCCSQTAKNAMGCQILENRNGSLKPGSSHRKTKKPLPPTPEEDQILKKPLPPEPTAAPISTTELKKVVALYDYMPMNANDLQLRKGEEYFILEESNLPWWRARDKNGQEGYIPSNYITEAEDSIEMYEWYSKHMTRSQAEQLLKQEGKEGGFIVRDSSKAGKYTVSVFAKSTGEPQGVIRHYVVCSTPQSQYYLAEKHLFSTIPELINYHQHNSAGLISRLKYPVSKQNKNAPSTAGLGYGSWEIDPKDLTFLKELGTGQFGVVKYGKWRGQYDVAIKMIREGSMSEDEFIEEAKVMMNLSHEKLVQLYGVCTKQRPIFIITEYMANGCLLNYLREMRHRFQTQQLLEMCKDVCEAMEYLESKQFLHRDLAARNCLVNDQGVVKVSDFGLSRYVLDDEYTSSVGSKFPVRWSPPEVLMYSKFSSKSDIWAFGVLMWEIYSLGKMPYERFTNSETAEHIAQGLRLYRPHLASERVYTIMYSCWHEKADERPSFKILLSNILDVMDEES
Protocol: For analysis of Btk occupancy in Babc/L mice following oral dosing of compounds after 4 hours. Isolating peripheral blood mononuclear cells (PBMCs) with mouse peripheral blood separation kit (Hao Yang Biological Manufacture CO., LTD, Tianjin) were collected from Babc/L mice (1 ml blood from two mice). Spleens were processed to splenocytes followed by 5 min incubation in red blood cell lysing buffer (from mouse peripheral blood separation kit). PBMCs or splenocytes were then PCI-33380-labeled and lysates analyzed by fluorescent gel scanning as described in cellular assays.

Ramos cells = assay: Calcium flux assay, anti-IgM stimulated Ramos cells; type: cell-based; conditions: Homo sapiens, IgM-induced calcium influx, read-out: Ramos Ca Flux
Protocol: Calcium flux fluorescence-based assays were performed in aFDSS7000EX (Hamamatsu Photonics) fluorometric imaging plate reader according to manufacturer instructions. Compounds to be assayed were dissolved in DMSO, diluted to appropriate concentrations in Ca^2+ buffer ranging from 0 to 10 μM (at a dilution factor of 0.1), added 5 μl (6 X) to each well (the final DMSO concentration was 0.1% in each well). Then 12.5 μL 2× dye loading solution (Fluo-4 NW Calcium Assay Kits, Invitrogen) was added per well of a 384-well plate. Afterwards, actively growing Ramos cells (ATCC) in RPM1640 medium supplemented with 10% FBS (Invitrogen) were washed and re-plated in assay buffer (from Fluo-4 NW Calcium Assay Kits, Invitrogen) to approximately 6.4×10^6/ml (80000 cells/12.5 μL in 384-well plates). The plates were incubated at 37° C. for 30 minutes, then at room temperature for an additional 30 minutes. The plates were now ready to be used in an experiment. Immediately after the transfer and a 10-s recording of baseline fluorescence, the compound treated cells were stimulated with a goat anti-human IgM antibody ([…]; Jackson Immuno Research) and read in a FDSS for 240 seconds. Difference between the signal and that at baseline, designated adjusted relative fluorescence unit, was calculated by using a custom Excel (Microsoft, Redmond, Wash.) template to determine IgM-induced calcium influx and its inhibition by compounds. The table below show the result.

BTK [3] = molecular target: T1, BTK; assay: Btk kinase assay (HTRF); type: biochemical; conditions: [ATP]=80 μM, BTK=3.4 nM; read-out: BTK Inhibition
Protocol: Btk Kinase Assay and Other Kinases Assay Btk kinase activity was determined using a homogenous time resolved fluorescence (HTRF) methodology. Measurements were performed in a reaction volume of 15 μL using 384-well assay plates. […] Activity was determined by the ratio of the fluorescence at 665 nm to that at 615 nm. For each compound, enzyme activity as measured at various concentrations of compound, Negative control reactions were performed in the absence of inhibitor in two replicates and eight no enzyme controls were used to determine baseline fluorescence levels.
Target sequence in this assay (Q06187 whole entry, species assumed): as the sequence (Q06187 whole entry) above

SMILES: C=CC(=O)N1CCC[C@@H](n2nc(-c3ccc(Oc4cccc(OC)c4F)cc3)c3cncc(OC4CCOC4)c32)C1 (stereo partly drawn) [Example 99, 1-((3R)-3-(3-(4-(2-fluoro-3-methoxyphenoxy)phenyl)-7-((tetrahydrofuran-3-yl)oxy)-1H-pyrazolo[4,3-c]pyridin-1-yl)piperidin-1-yl)prop-2-en-1-one]
concentration sufficient to fully occupy the active site of Btk (BTK [1]): 100 nM

SMILES: C=CC(=O)N1CCC[C@@H](n2nc3ccncc3c2-c2ccc(Oc3cccc(Cl)c3Cl)cc2)C1 [Example 43, (R)-1-(3-(3-(4-(2,3-dichlorophenoxy)phenyl)-2H-pyrazolo[4,3-c]pyridin-2-yl)piperidin-1-yl)prop-2-en-1-one]
concentration sufficient to fully occupy the active site of Btk (BTK [1]): 100 nM

SMILES: C=CC(=O)N1CC[C@@H](n2nc(-c3ccc(Oc4cccc(OC)c4F)cc3)c3cnccc32)C1 [Example 3, (R)-1-(3-(3-(4-(2-fluoro-3-methoxyphenoxy)phenyl)-1H-pyrazolo[4,3-c]pyridin-1-yl)pyrrolidin-1-yl)prop-2-en-1-one]
concentration sufficient to fully occupy the active site of Btk (BTK [1]): 50 nM
pIC50 (Ramos cells): 7.00 to 8.00
Btk occupancy in vivo (Btk [2]; 10 mg/kg single oral dose): full occupancy

SMILES: C=CC(=O)N1CC[C@@H](n2nc(-c3ccc(Oc4cccc(OC)c4F)cc3)c3cncc(OCC)c32)C1 [Example 80, (R)-1-(3-(7-ethoxy-3-(4-(2-fluoro-3-methoxyphenoxy)phenyl)-1H-pyrazolo[4,3-c]pyridin-1-yl)pyrrolidin-1-yl)prop-2-en-1-one]
concentration sufficient to fully occupy the active site of Btk (BTK [1]): 50 nM

SMILES: C=CC(=O)N1CCC[C@@H](n2nc(-c3ccc(Oc4cccc(OC)c4F)cc3)c3cncc(OCCC)c32)C1 [Example 77, (R)-1-(3-(3-(4-(2-fluoro-3-methoxyphenoxy)phenyl)-7-propoxy-1H-pyrazolo[4,3-c]pyridin-1-yl)piperidin-1-yl)prop-2-en-1-one]
concentration sufficient to fully occupy the active site of Btk (BTK [1]): 25 nM

SMILES: C=CC(=O)N1CCC[C@@H](n2nc(-c3ccc(Oc4cccc(OC)c4F)cc3)c3cncc(OCCO)c32)C1 [Example 98, (R)-1-(3-(3-(4-(2-fluoro-3-methoxyphenoxy)phenyl)-7-(2-hydroxyethoxy)-1H-pyrazolo[4,3-c]pyridin-1-yl)piperidin-1-yl)prop-2-en-1-one]
concentration sufficient to fully occupy the active site of Btk (BTK [1]): 100 nM

SMILES: C=CC(=O)N1CCC[C@@H](n2nc(-c3ccc(Oc4cccc(OC)c4F)cc3)c3cncc(OC)c32)C1 [Example 6, (R)-1-(3-(3-(4-(2-fluoro-3-methoxyphenoxy)phenyl)-7-methoxy-1H-pyrazolo[4,3-c]pyridin-1-yl)piperidin-1-yl)prop-2-en-1-one]
pIC50 (Ramos cells): 7.00 to 8.00

SMILES: C=CC(=O)N1CCC[C@@H](n2nc(-c3ccc(Oc4cccc(OC)c4F)cc3)c3cncc(OCC)c32)C1 [Example 73, (R)-1-(3-(7-ethoxy-3-(4-(2-fluoro-3-methoxyphenoxy)phenyl)-1H-pyrazolo[4,3-c]pyridin-1-yl)piperidin-1-yl)prop-2-en-1-one]
concentration sufficient to fully occupy the active site of Btk (BTK [1]): 100 nM
Btk occupancy in vivo (Btk [2]; 5 mg/kg single oral dose): full occupancy

SMILES: C=CC(=O)N1CC[C@@H](n2nc(-c3ccc(Oc4cccc(F)c4Cl)cc3)c3cnccc32)C1 [Example 4, (R)-1-(3-(3-(4-(2-chloro-3-fluorophenoxy)phenyl)-1H-pyrazolo[4,3-c]pyridin-1-yl)pyrrolidin-1-yl)prop-2-en-1-one]
concentration sufficient to fully occupy the active site of Btk (BTK [1]): 100 nM
pIC50 (Ramos cells): 7.00 to 8.00
Btk occupancy in vivo (Btk [2]; 10 mg/kg single oral dose): full occupancy

SMILES: C=CC(=O)N1CC[C@@H](n2nc(-c3ccc(Oc4cccc(OC)c4Cl)cc3)c3cncc(OC)c32)C1 [Example 69, (R)-1-(3-(3-(4-(2-chloro-3-methoxyphenoxy)phenyl)-7-methoxy-1H-pyrazolo[4,3-c]pyridin-1-yl)pyrrolidin-1-yl)prop-2-en-1-one]
concentration sufficient to fully occupy the active site of Btk (BTK [1]): 100 nM

SMILES: C=CC(=O)N1CCC[C@@H](n2nc(-c3ccc(Oc4cccc(OC)c4Cl)cc3)c3cnccc32)C1 [Example 2, (R)-1-(3-(3-(4-(2-chloro-3-methoxyphenoxy)phenyl)-1H-pyrazolo[4,3-c]pyridin-1-yl)piperidin-1-yl)prop-2-en-1-one]
concentration sufficient to fully occupy the active site of Btk (BTK [1]): 100 nM
pIC50 (Ramos cells): 7.00 to 8.00
Btk occupancy in vivo (Btk [2]; 10 mg/kg single oral dose): full occupancy

Second part, the compound after the results:

concentration sufficient to fully occupy the active site of Btk (BTK [1]): 100 nM
SMILES: C=CC(=O)N1CC[C@@H](n2nc3ccncc3c2-c2ccc(Oc3cccc(Cl)c3Cl)cc2)C1 [Example 41, (R)-1-(3-(3-(4-(2,3-dichlorophenoxy)phenyl)-2H-pyrazolo[4,3-c]pyridin-2-yl)pyrrolidin-1-yl)prop-2-en-1-one]

concentration sufficient to fully occupy the active site of Btk (BTK [1]): 100 nM
Btk occupancy in vivo (Btk [2]; 10 mg/kg single oral dose): full occupancy
SMILES: C=CC(=O)N1CCC[C@@H](n2nc(-c3ccc(Oc4cccc(OC)c4F)cc3)c3cnccc32)C1 [Example 71, (R)-1-(3-(3-(4-(2-fluoro-3-methoxyphenoxy)phenyl)-1H-pyrazolo[4,3-c]pyridin-1-yl)piperidin-1-yl)prop-2-en-1-one]

concentration sufficient to fully occupy the active site of Btk (BTK [1]): 50 nM
SMILES: C=CC(=O)N1CC[C@@H](n2nc(-c3ccc(Oc4cccc(OC)c4F)cc3)c3cncc(OC)c32)C1 [Example 79, (R)-1-(3-(3-(4-(2-fluoro-3-methoxyphenoxy)phenyl)-7-methoxy-1H-pyrazolo[4,3-c]pyridin-1-yl)pyrrolidin-1-yl)prop-2-en-1-one]

concentration sufficient to fully occupy the active site of Btk (BTK [1]): 50 nM
SMILES: C=CC(=O)N1CCC[C@@H](n2nc(-c3ccc(Oc4cccc(OC)c4F)cc3)c3c(C)nccc32)C1 [Example 78, (R)-1-(3-(3-(4-(2-fluoro-3-methoxyphenoxy)phenyl)-4-methyl-1H-pyrazolo[4,3-c]pyridin-1-yl)piperidin-1-yl)prop-2-en-1-one]

concentration sufficient to fully occupy the active site of Btk (BTK [1]): 100 nM
SMILES: C=CC(=O)N1CCC[C@@H](n2nc(-c3ccc(Oc4cccc(F)c4F)cc3)c3cnccc32)C1 [Example 17, (R)-1-(3-(3-(4-(2,3-difluorophenoxy)phenyl)-1H-pyrazolo[4,3-c]pyridin-1-yl)piperidin-1-yl)prop-2-en-1-one]

Btk occupancy in vivo (Btk [2]; 5 mg/kg single oral dose): full occupancy
SMILES: C=CC(=O)N1CCCC1Cn1nc(-c2ccc(Oc3cccc(OC)c3F)cc2)c2cncc(OC)c21 (centres unmarked) [Example 91, 1-(2-((3-(4-(2-fluoro-3-methoxyphenoxy)phenyl)-7-methoxy-1H-pyrazolo[4,3-c]pyridin-1-yl)methyl)pyrrolidin-1-yl)prop-2-en-1-one]

pIC50 (BTK [3]): 7.00 to 8.00
SMILES: COc1cccc(Oc2ccc(-c3nn([C@@H]4CCCN(C(=O)/C(C#N)=C/C(C)(C)C)C4)c4c(OC)cncc34)cc2)c1F [Example 90, (R,E)-2-(3-(3-(4-(2-fluoro-3-methoxyphenoxy)phenyl)-7-methoxy-1H-pyrazolo[4,3-c]pyridin-1-yl)piperidine-1-carbonyl)-4,4-dimethylpent-2-enenitrile]
